Where two headings read alike, the source gives them in different places.
Key:
AHR [1] = target: T1, AHR (Mus musculus, UniProt P30561); assay: In vitro assay 3: antagonism in mouse cell line (AHR transactivation, firefly luciferase reporter, kynurenic acid prestimulated); type: cell-based
T1 sequence (P30561 1-848 P471L/N533S/M589L): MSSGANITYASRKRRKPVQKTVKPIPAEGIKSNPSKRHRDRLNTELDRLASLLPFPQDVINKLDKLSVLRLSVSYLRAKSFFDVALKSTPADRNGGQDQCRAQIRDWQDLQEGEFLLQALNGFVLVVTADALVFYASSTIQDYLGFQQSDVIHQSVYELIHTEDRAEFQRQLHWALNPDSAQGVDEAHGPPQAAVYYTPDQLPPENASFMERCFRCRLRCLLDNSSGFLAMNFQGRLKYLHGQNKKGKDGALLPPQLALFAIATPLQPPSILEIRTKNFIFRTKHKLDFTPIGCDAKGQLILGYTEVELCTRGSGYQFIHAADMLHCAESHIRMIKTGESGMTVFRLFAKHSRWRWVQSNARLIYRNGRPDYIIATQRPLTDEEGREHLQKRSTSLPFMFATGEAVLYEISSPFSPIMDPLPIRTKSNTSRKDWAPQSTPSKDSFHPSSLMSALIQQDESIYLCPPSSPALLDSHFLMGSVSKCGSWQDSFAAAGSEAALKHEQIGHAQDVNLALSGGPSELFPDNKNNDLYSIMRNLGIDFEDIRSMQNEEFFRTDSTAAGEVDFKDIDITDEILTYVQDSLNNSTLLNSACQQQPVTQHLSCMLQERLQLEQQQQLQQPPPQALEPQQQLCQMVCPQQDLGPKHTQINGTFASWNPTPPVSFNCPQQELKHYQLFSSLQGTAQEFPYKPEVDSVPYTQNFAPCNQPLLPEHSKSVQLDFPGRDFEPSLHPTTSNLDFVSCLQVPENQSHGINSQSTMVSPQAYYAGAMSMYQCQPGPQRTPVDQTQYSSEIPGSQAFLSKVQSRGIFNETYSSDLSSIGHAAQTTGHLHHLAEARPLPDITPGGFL
Outline: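 Mouse cells stably carrying a DRE-driven AHR-inducible firefly luciferase reporter were prestimulated with the endogenous agonist kynurenic acid before compound addition. Luciferase read by SteadyGlo; cells without kynurenic acid served as full-inhibition control, with normalization to positive and negative controls. Repeat tests reported as mean or median.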

AHR [2] = target: T2, AHR (Homo sapiens, UniProt P35869); assay: In vitro assay 1: antagonism in human cell line (AHR transactivation, firefly luciferase reporter, kynurenic acid prestimulated); type: cell-based; settings: AHR Antagonism Human IC50 [M]
T2 construct: U87 MG glioblastoma cells (ATCC #HTB-14) endogenously expressing AHR; endogenous in cells; host or cells: U87 MG glioblastoma cells (ATCC #HTB-14)
T2 sequence (P35869 11-848): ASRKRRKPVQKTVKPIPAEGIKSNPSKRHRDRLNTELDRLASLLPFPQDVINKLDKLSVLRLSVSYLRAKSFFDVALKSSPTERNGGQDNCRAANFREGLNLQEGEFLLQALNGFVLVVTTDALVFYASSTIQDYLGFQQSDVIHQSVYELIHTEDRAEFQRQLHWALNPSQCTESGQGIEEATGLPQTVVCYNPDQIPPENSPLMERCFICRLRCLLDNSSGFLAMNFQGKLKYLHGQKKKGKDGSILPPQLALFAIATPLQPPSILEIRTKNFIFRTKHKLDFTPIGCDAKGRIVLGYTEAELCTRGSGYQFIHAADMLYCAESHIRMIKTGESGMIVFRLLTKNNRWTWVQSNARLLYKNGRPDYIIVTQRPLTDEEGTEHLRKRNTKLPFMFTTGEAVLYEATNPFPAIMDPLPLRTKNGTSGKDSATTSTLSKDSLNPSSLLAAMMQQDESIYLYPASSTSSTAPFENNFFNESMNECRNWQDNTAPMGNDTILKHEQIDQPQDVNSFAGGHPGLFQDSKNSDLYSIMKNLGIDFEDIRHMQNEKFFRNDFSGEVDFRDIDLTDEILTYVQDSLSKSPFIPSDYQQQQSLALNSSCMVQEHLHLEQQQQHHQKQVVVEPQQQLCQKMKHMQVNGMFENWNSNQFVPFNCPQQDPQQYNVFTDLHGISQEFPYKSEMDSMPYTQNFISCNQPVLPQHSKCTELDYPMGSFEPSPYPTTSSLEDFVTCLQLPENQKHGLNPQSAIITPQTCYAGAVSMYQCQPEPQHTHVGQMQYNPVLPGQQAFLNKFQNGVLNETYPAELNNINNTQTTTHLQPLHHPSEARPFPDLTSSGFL
Outline: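 U87 MG glioblastoma cells with endogenous AHR, stably carrying a DRE-driven firefly luciferase reporter and constitutive Renilla reporter, prestimulated with kynurenic acid before compound addition. Firefly and Renilla read by dual luciferase; Renilla flags toxicity; normalized to controls (150 μM kynurenic acid + 5 μM staurosporine as full inhibition); repeat values averaged or median.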

[3] = mouse Hepa 1c1c7 cells, 200 μM kynurenic acid, 20 hours, read-out: AHR Antagonism Mouse IC50
[4] = Hepa 1c1c7 cells, 200 μM kynurenic acid, 20 hours, firefly luciferase reporter, read-out: AHR Antagonism Mouse IC50
[5] = read-out: AHR Antagonism Mouse IC50, mouse Hepa 1c1c7 cells, 200 μM kynurenic acid, 20 hours

Row | IC50 (AHR [1]; [3]) [nM] | IC50 (AHR [2]) [M] | IC50 (AHR [1]; [4]) [nM] | IC50 (AHR [2]; firefly luciferase reporter) [M] | SMILES | IC50 (AHR [1]; [5]) [nM]
1 | 1.73 | 8.65e-09 | – | – | CS(=O)(=O)c1ccc(-c2nc3c4ccccc4nc(N[C@@H]4CCCCNC4=O)n3n2)cc1 [Example 372, (3R)-3-({2-[4-(methanesulfonyl)phenyl][1,2,4]triazolo[1,5-c]quinazolin-5-yl}amino)azepan-2-one] | –
2 | 45.6 | 7.48e-09 | – | – | Cc1n[nH]cc1-c1nc2c3cccc(C(F)(F)F)c3nc(N[C@@H]3CCCCNC3=O)n2n1 [Example 746, (3R)-3-{[2-(3-methyl-1H-pyrazol-4-yl)-7-(trifluoromethyl)[1,2,4]triazolo[1,5-c]quinazolin-5-yl]amino}azepan-2-one] | –
3 | > 20000 | 2.87e-09 | – | – | O=C1NCCCC[C@H]1Nc1nc2ccccc2c2nc(-c3ccc(Br)cc3Cl)nn12 [Example 200, (3R)-3-{[2-(4-bromo-2-chlorophenyl)[1,2,4]triazolo[1,5-c]quinazolin-5-yl]amino}azepan-2-one] | –
4 | 927 | 8.48e-07 | – | – | CS(=N)(=O)c1cccc(-c2nc3c4ccccc4nc(N[C@@H]4CCCCNC4=O)n3n2)c1 (single isomer, unassigned) [Example 660] | –
5 | – | – | 99.3 | 6.83e-08 | C[C@@H](Nc1nc2c(Br)cccc2c2nc(-c3cnn(C)c3)nn12)C(=O)N1CCN(C(=O)OC(C)(C)C)CC1 [Example 886, tert-butyl 4-{N-[7-bromo-2-(1-methyl-1H-pyrazol-4-yl)[1,2,4]triazolo[1,5-c]quinazolin-5-yl]-D-alanyl}piperazine-1-carboxylate] | –
6 | – | – | 3 | 2.6e-09 | COC(=O)[C@H](Nc1nc2c(Br)cccc2c2nc(-c3ccc(OC)cc3)nn12)C(C)C [Example 867, methyl N-[7-bromo-2-(4-methoxyphenyl)[1,2,4]triazolo[1,5-c]quinazolin-5-yl]-D-valinate] | –
7 | 42.7 | 6.73e-08 | – | – | NC(=O)[C@@H](CO)Nc1nc2ccccc2c2nc(-c3ccccc3OC(F)(F)F)nn12 [Example 468, N^2-{2-[2-(trifluoromethoxy)phenyl][1,2,4]triazolo[1,5-c]quinazolin-5-yl}-D-serinamide] | –
8 | 625 | 1.36e-06 | – | – | COc1ccc(-c2nc3c4c(C(F)(F)F)cccc4nc(N[C@@H]4CNCCNC4=O)n3n2)cc1 [Example 285, (6R)-6-{[2-(4-methoxyphenyl)-10-(trifluoromethyl)[1,2,4]triazolo[1,5-c]quinazolin-5-yl]amino}-1,4-diazepan-5-one] | –
9 | 190 | 4.88e-08 | – | – | O=C1NCCCC[C@H]1Nc1nc2ccccc2c2nc(-c3ccc(O)c(F)c3)nn12 [Example 629, (3R)-3-{[2-(3-fluoro-4-hydroxyphenyl)[1,2,4]triazolo[1,5-c]quinazolin-5-yl]amino}azepan-2-one] | –
10 | 2.18 | 4.64e-09 | – | – | O=C1NCCCC[C@H]1Nc1nc2ccccc2c2nc(-c3ccc(F)cc3OC(F)(F)F)nn12 [Example 516, (3R)-3-({2-[4-fluoro-2-(trifluoromethoxy)phenyl][1,2,4]triazolo[1,5-c]quinazolin-5-yl}amino)azepan-2-one] | –
11 | 0.799 | 1.17e-09 | – | – | CC(C)Oc1ccc(-c2nc3c4ccccc4nc(N[C@@H]4CCCCNC4=O)n3n2)cc1 [Example 613, (3R)-3-[(2-{4-[(propan-2-yl)oxy]phenyl}[1,2,4]triazolo[1,5-c]quinazolin-5-yl)amino]azepan-2-one] | –
12 | 17.7 | 1.3e-07 | – | – | CC[C@H](Nc1nc2ccccc2c2nc(-c3ccc(Br)cc3OC(F)(F)F)nn12)C(N)=O [Example 524, (2S)-2-({2-[4-bromo-2-(trifluoromethoxy)phenyl][1,2,4]triazolo[1,5-c]quinazolin-5-yl}amino)butanamide] | –
13 | 0.64 | 1.14e-09 | – | – | O=C1NCCCC[C@H]1Nc1nc2ccccc2c2nc(-c3ccc(F)c(F)c3)nn12 [Example 633, (3R)-3-{[2-(3,4-difluorophenyl)[1,2,4]triazolo[1,5-c]quinazolin-5-yl]amino}azepan-2-one] | –
14 | 4.38 | 8.63e-09 | – | – | COc1cccc(-c2nc3c4ccccc4nc(N[C@H](C)C(N)=O)n3n2)c1 [Example 92, N^2-[2-(3-methoxyphenyl)[1,2,4]triazolo[1,5-c]quinazolin-5-yl]-D-alaninamide] | –
15 | – | – | 63.8 | 1.1e-07 | Cn1nccc1-c1nc2c3cccc(C(F)(F)F)c3nc(N[C@H]3CCCCNC3=O)n2n1 [Example 807, (3S)-3-{[2-(1-methyl-1H-pyrazol-5-yl)-7-(trifluoromethyl)[1,2,4]triazolo[1,5-c]quinazolin-5-yl]amino}azepan-2-one] | –
16 | 1.25 | 7.64e-09 | – | – | CC[C@@H](Nc1nc2ccccc2c2nc(-c3cccc(C#N)c3)nn12)C(N)=O [Example 382, (2R)-2-{[2-(3-cyanophenyl)[1,2,4]triazolo[1,5-c]quinazolin-5-yl]amino}butanamide] | –
17 | – | – | 4.14 | 6.08e-09 | COc1ccc(-c2nc3c4cccc(Br)c4nc(N[C@@H](C(=O)N4CCOCC4)C(C)C)n3n2)cc1 [Example 925, (2R)-2-{[7-bromo-2-(4-methoxyphenyl)[1,2,4]triazolo[1,5-c]quinazolin-5-yl]amino}-3-methyl-1-(morpholin-4-yl)butan-1-one] | –
18 | 135 | 1.43e-08 | – | – | COC(=O)c1cccc2c1nc(N[C@@H]1CCCCNC1=O)n1nc(-c3ccc(OC)cc3)nc21 [Example 250, Methyl 2-(4-methoxyphenyl)-5-{[(3R)-2-oxoazepan-3-yl]amino}[1,2,4]triazolo[1,5-c]quinazoline-7-carboxylate] | –
19 | 1.69 | 5.89e-10 | – | – | O=C1NCCNC[C@H]1Nc1nc2c(C(F)(F)F)cccc2c2nc(-c3cccc(F)c3)nn12 [Example 424, (6R)-6-{[2-(3-fluorophenyl)-7-(trifluoromethyl)[1,2,4]triazolo[1,5-c]quinazolin-5-yl]amino}-1,4-diazepan-5-one] | –
20 | 1.2 | 1.64e-08 | – | – | CC[C@@H](Nc1nc2ccccc2c2nc(-c3ccccc3OC(F)(F)F)nn12)C(N)=O [Example 469, (2R)-2-({2-[2-(trifluoromethoxy)phenyl][1,2,4]triazolo[1,5-c]quinazolin-5-yl}amino)butanamide] | –

Row | SMILES | IC50 (AHR [1]; [3]) [nM] | IC50 (AHR [2]) [M] | IC50 (AHR [1]; [4]) [nM] | IC50 (AHR [2]; firefly luciferase reporter) [M] | IC50 (AHR [1]; [5]) [nM]
21 | COc1cccc(-c2nc3c4c(C)cccc4nc(NC4CCNC4=O)n3n2)c1 (single isomer, unassigned) [Example 190, 3-{[2-(3-methoxyphenyl)-10-methyl[1,2,4]triazolo[1,5-c]quinazolin-5-yl]amino}pyrrolidin-2-one] | – | 1.54e-07 | – | – | 252
22 | CC[C@H](Nc1nc2c(Br)cccc2c2nc(-c3ccc(Cl)cc3OC(F)F)nn12)C(N)=O [Example 698, (2S)-2-({7-bromo-2-[4-chloro-2-(difluoromethoxy)phenyl][1,2,4]triazolo[1,5-c]quinazolin-5-yl}amino)butanamide] | – | 4.68e-08 | – | – | 7.35

From patent US20230113037A1 (Bayer Aktiengesellschaft, priority 2019, published 2023)
